Reference: patent publication US10294236B2, “Compounds as rearranged during transfection (RET) inhibitors” (GLAXOSMITHKLINE INTELLECTUAL PROPERTY DEVELOPMENT LIMITED, priority 2014, dated 2019)
Where a name gives a salt, the structure may show the parent alone.

Target: T1, Human RET kinase cytoplasmic domain (Homo sapiens, UniProt P07949)
T1 construct: made in house
T1 sequence (P07949 658-1114): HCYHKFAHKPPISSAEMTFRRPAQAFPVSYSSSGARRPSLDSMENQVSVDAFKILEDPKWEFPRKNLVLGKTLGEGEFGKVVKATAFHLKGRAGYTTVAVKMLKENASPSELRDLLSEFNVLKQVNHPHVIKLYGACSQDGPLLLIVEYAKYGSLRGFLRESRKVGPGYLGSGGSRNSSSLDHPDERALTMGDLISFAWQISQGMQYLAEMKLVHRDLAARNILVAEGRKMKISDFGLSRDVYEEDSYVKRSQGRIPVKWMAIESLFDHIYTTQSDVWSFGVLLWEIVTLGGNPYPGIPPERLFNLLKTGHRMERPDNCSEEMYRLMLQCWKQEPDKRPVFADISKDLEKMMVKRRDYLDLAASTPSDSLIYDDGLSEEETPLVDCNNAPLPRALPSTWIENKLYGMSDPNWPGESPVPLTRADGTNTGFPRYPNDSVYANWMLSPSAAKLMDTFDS
Experiment: RET kinase enzymatic assay
Assay type: biochemical
Method in brief: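 GST-RET, 0.2 nM in 2× enzyme mix (HEPES, CHAPS, BSA, DTT), preincubated with inhibitor 30 min at 23 °C. Reaction for 1 h at 23 °C after adding 2× substrate mix: 20 μM ATP, 20 mM MgCl2, 1 μM biotinylated peptide. Single wells per concentration; IC50 from sigmoidal dose-response fit.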

SMILES | IC50 [nM]
CCOc1cc(-c2ccc(NC(=O)Nc3cc(-n4cnc(C)c4)cc(C(F)(F)F)c3)c(F)c2)c[nH]c1=O [Example 2, 1-(4-(5-Ethoxy-6-oxo-1,6-dihydropyridin-3-yl)-2-fluorophenyl)-3-(3-(4-methyl-1H-imidazol-1-yl)-5-(trifluoromethyl)phenyl)urea] | < 100
CC(C)Oc1ccc(NC(=O)Nc2ccc(-c3ccc(=O)[nH]c3)cc2)cc1C(F)(F)F [Example 163] | < 100
CCOc1cc(-c2ccc(NC(=O)Nc3cc(C(C)(C)C(F)(F)F)on3)c(F)c2)c[nH]c1=O [Example 11, 1-(4-(5-Ethoxy-6-oxo-1,6-dihydropyridin-3-yl)-2-fluorophenyl)-3-(5-(1,1,1-trifluoro-2-methylpropan-2-yl)isoxazol-3-yl)urea] | < 100
CCOc1cc(-c2ncc(NC(=O)Nc3cc(OCCN(C)C)cc(C(F)(F)F)c3)c(C)n2)c[nH]c1=O [Example 74, 1-(3-(2-(Dimethylamino)ethoxy)-5-(trifluoromethyl)phenyl)-3-(2-(5-ethoxy-6-oxo-1,6-dihydropyridin-3-yl)-4-methylpyrimidin-5-yl)urea dihydrochloride] | < 100
CCOc1cc(=O)[nH]cc1-c1ncc(NC(=O)Nc2cc(-c3nnc(C)o3)cc(C(F)(F)F)c2)c(C)n1 [Example 67, 1-(2-(4-Ethoxy-6-oxo-1,6-dihydropyridin-3-yl)-4-methylpyrimidin-5-yl)-3-(3-(5-methyl-1,3,4-oxadiazol-2-yl)-5-(trifluoromethyl)phenyl)urea] | < 100
CCOc1cc(-c2cnc(NC(=O)Nc3ccc(CC(C)(C)CO)c(C(F)(F)F)c3)c(C)n2)c[nH]c1=O [Example 41, 1-(5-(5-Ethoxy-6-oxo-1,6-dihydropyridin-3-yl)-3-methylpyrazin-2-yl)-3-(4-(3-hydroxy-2,2-dimethylpropyl)-3-(trifluoromethyl)phenyl)urea] | < 100
CCOc1cc(-c2ncc(NC(=O)Nc3ccc(CN(C)C)c(C(F)(F)F)c3)cn2)c[nH]c1=O [Example 179, 1-(4-((Dimethylamino)methyl)-3-(trifluoromethyl)phenyl)-3-(2-(5-ethoxy-6-oxo-1,6-dihydropyridin-3-yl)pyrimidin-5-yl)urea] | < 100
CC1(Oc2ccc(NC(=O)Nc3ccc(-c4c[nH]c(=O)c5ccoc45)cc3F)cc2C(F)(F)F)COC1 [Example 19, 1-(2-Fluoro-4-(4-oxo-4,5-dihydrofuro[3,2-c]pyridin-7-yl)phenyl)-3-(4-((3-methyloxetan-3-yl)oxy)-3-(trifluoromethyl)phenyl)urea] | < 100
CC(C)(O)c1ccc(NC(=O)Nc2ccc(-c3c[nH]c(=O)c4ccccc34)cc2F)cc1C(F)(F)F [Example 75] | < 100
CCOc1cc(=O)[nH]cc1-c1ncc(NC(=O)Nc2ccc(C(C)(C)C(N)=O)c(C(F)(F)F)c2)c(C)n1 [Example 61, 2-(4-(3-(2-(4-Ethoxy-6-oxo-1,6-dihydropyridin-3-yl)-4-methylpyrimidin-5-yl)ureido)-2-(trifluoromethyl)phenyl)-2-methylpropanamide] | < 100
CCOc1cc(-c2ncc(NC(=O)Nc3ccc(C(C)(C)CN(C)C)c(C(F)(F)F)c3)c(C)n2)c[nH]c1=O [Example 73, 1-(4-(1-(Dimethylamino)-2-methylpropan-2-yl)-3-(trifluoromethyl)phenyl)-3-(2-(5-ethoxy-6-oxo-1,6-dihydropyridin-3-yl)-4-methylpyrimidin-5-yl)urea dihydrochloride] | < 100
CC1(Oc2ccc(NC(=O)Nc3ccc(-c4ccc(=O)[nH]c4)cc3)cc2C(F)(F)F)COC1 [Example 157] | < 100
CCOc1cc(-c2cnc(NC(=O)Nc3ccc(CN(C)C)c(C(F)(F)F)c3)c(C)n2)c[nH]c1=O [Example 114] | 100 to 500
CCOc1cc(-c2ccc(NC(=O)Nc3ccc(OC4(C)COC4)c(C(F)(F)F)c3)c(C)n2)c[nH]c1=O [Example 50, 1-(5′-Ethoxy-6-methyl-6′-oxo-1′,6′-dihydro-[2,3′-bipyridin]-5-yl)-3-(4-((3-methyloxetan-3-yl)oxy)-3-(trifluoromethyl)phenyl)urea hydrochloride] | < 100
CCOc1cc(=O)[nH]cc1-c1ncc(NC(=O)Nc2ccc(CN(C)C)c(C(F)(F)F)c2)c(C)n1 [Example 55, 1-(4-((Dimethylamino)methyl)-3-(trifluoromethyl)phenyl)-3-(2-(4-ethoxy-6-oxo-1,6-dihydropyridin-3-yl)-4-methylpyrimidin-5-yl)urea] | < 100
CCOc1[nH]c(=O)ccc1-c1ccc(NC(=O)Nc2ccc(OC3(C)COC3)c(C(F)(F)F)c2)c(F)c1 [Example 35, 1-(4-(2-Ethoxy-6-oxo-1,6-dihydropyridin-3-yl)-2-fluorophenyl)-3-(4-((3-methyloxetan-3-yl)oxy)-3-(trifluoromethyl)phenyl)urea] | < 100
CCN1CCN(Cc2cc(F)c(NC(=O)Nc3cnc(-c4c[nH]c(=O)cc4OCCOC)nc3C)cc2C(F)(F)F)CC1 [Example 182, 1-(4-((4-Ethylpiperazin-1-yl)methyl)-2-fluoro-5-(trifluoromethyl)phenyl)-3-(2-(4-(2-methoxyethoxy)-6-oxo-1,6-dihydropyridin-3-yl)-4-methylpyrimidin-5-yl)urea] | < 100
O=C(Nc1ccc(-c2c[nH]c(=O)c3occc23)cc1F)Nc1cc(C(F)(F)F)ccc1F [Example 155] | < 100
CCOc1cc(=O)[nH]cc1-c1ncc(NC(=O)Nc2ccc(C3(CO)CC3)c(C(F)(F)F)c2)c(C)n1 [Example 88] | < 100
CCOc1cc(=O)[nH]cc1-c1ccc(NC(=O)Nc2cc(C(F)(F)F)ccc2F)c(F)c1 [Example 128] | < 100
O=C(Nc1ccc(-c2ccc(=O)[nH]c2)cc1)Nc1ccc(CN2CCNCC2)c(C(F)(F)F)c1 [Example 17, 1-(4-(6-Oxo-1,6-dihydropyridin-3-yl)phenyl)-3-(4-(piperazin-1-ylmethyl)-3-(trifluoromethyl)phenyl)urea] | < 100
CCOc1cc(=O)[nH]cc1-c1ncc(NC(=O)Nc2ccc(C#N)c(C(F)(F)F)c2)c(C)n1 [Example 44, 1-(4-Cyano-3-(trifluoromethyl)phenyl)-3-(2-(4-ethoxy-6-oxo-1,6-dihydropyridin-3-yl)-4-methylpyrimidin-5-yl)urea] | < 100
CCOc1cc(-c2ncc(NC(=O)Nc3ccc(C(C)C#N)c(C(F)(F)F)c3)c(C)n2)c[nH]c1=O (stereo not drawn) [Example 25, 1-(4-(1-Cyanoethyl)-3-(trifluoromethyl)phenyl)-3-(2-(5-ethoxy-6-oxo-1,6-dihydropyridin-3-yl)-4-methylpyrimidin-5-yl)urea] | < 100
CC1(Oc2ccc(NC(=O)Nc3ccc(-c4c[nH]c(=O)c5cn[nH]c45)cc3F)cc2C(F)(F)F)COC1 [Example 4, 1-(2-Fluoro-4-(4-oxo-4,5-dihydro-1H-pyrazolo[4,3-c]pyridin-7-yl)phenyl)-3-(4-((3-methyloxetan-3-yl)oxy)-3-(trifluoromethyl)phenyl)urea] | < 100
CCOc1cc(-c2ncc(NC(=O)Nc3ccc(C#N)c(C(F)(F)F)c3)c(C)n2)c[nH]c1=O [Example 43, 1-(4-Cyano-3-(trifluoromethyl)phenyl)-3-(2-(5-ethoxy-6-oxo-1,6-dihydropyridin-3-yl)-4-methylpyrimidin-5-yl)urea] | < 100
CCOc1cc(-c2ncc(NC(=O)Nc3cc(OCCN4CCOCC4)cc(C(F)(F)F)c3)c(C)n2)c[nH]c1=O [Example 99] | < 100
CCOc1cc(-c2ncc(NC(=O)Nc3cc(C(C)(C)C(F)(F)F)on3)cn2)c[nH]c1=O [Example 181, 1-(2-(5-Ethoxy-6-oxo-1,6-dihydropyridin-3-yl)pyrimidin-5-yl)-3-(5-(1,1,1-trifluoro-2-methylpropan-2-yl)isoxazol-3-yl)urea hydrochloride] | < 100

The next lines start with the values.

IC50 [nM] | SMILES
< 100 | CCOc1cc(-c2ccc(NC(=O)Nc3ccc(C(C)C#N)c(C(F)(F)F)c3)c(F)c2)c[nH]c1=O (stereo not drawn) [Example 127]
< 100 | CCOc1cc(-c2ccc(NC(=O)Nc3cnc(OC(C)C)c(C(F)(F)F)c3)c(F)c2)c[nH]c1=O [Example 92]
< 100 | CCOc1cc(-c2ccc(NC(=O)Nc3ccc(CC(F)(F)CO)c(C(F)(F)F)c3)c(F)c2)c[nH]c1=O [Example 125]
< 100 | CCOc1cc(-c2ccc(NC(=O)Nc3ccc(C#N)c(C(F)(F)F)c3)c(F)c2)c[nH]c1=O [Example 158]
< 100 | CCOc1cc(-c2ccc(NC(=O)Nc3ccc(OCC(C)O)c(C(F)(F)F)c3)c(F)c2)c[nH]c1=O (stereo not drawn) [Example 145]
< 100 | CCOc1cc(-c2ccc(NC(=O)Nc3ccc(OC(C)CO)c(C(F)(F)F)c3)c(F)c2)c[nH]c1=O (stereo not drawn) [Example 122]
< 100 | CCOc1cc(-c2ccc(NC(=O)Nc3ccc(OC4(C)CS(=O)(=O)C4)c(C(F)(F)F)c3)c(F)c2)c[nH]c1=O [Example 150]
< 100 | CCOc1cc(-c2ccc(NC(=O)Nc3ccc(OC4(C)CN(C)C4)c(C(F)(F)F)c3)c(F)c2)c[nH]c1=O [Example 117]
< 100 | CC(C)Oc1ccc(NC(=O)Nc2ccc(-c3c[nH]c(=O)c(OCCCF)c3)cc2F)cc1C(F)(F)F [Example 121]
< 100 | CCOc1cc(-c2ccc(NC(=O)Nc3ccc(F)c(C(F)(F)F)c3)c(F)c2)c[nH]c1=O [Example 156]
< 100 | CCOc1cc(-c2ccc(NC(=O)Nc3ccc(CN(C)C)c(C(F)(F)F)c3)c(F)c2)c[nH]c1=O [Example 76]
< 100 | CCOc1cc(-c2ccc(NC(=O)Nc3ccc(Cl)c(C(F)(F)F)c3)c(F)c2)c[nH]c1=O [Example 152]
